Data from PubChem BioAssay AID248 (DTP/NCI, 2004).
Inconclusive results and toxic doses are left out. Cut-off read from the data, not from the text of the source: active = T/C of 150% or more; inactive = T/C below 125%.

Test system: L1210 leukemia ip in BDF1 mice, survival T/C
Assay: NCI In Vivo Anticancer Drug Screen. Data for tumor model L1210 Leukemia (intraperitoneal) in B6D2F1 (BDF1) mice
Conditions: endpoint: mean survival time, higher = longer survival
How it was run: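 Read-out is survival time, reported as the treated-group measurement over the vehicle-control measurement.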

[1] = dose: 100.0 mg/kg/injection, schedule: Q04DX003 (ip), vehicle: saline with Tween-80
[2] = dose: 100.0 mg/kg/injection, schedule: Q04DX003 (ip), vehicle: Klucel (hydroxypropylcellulose) (HPC)
[3] = dose: 200.0 mg/kg/injection, schedule: Q04DX003 (ip), vehicle: Klucel (hydroxypropylcellulose) (HPC)
[4] = dose: 400.0 mg/kg/injection, schedule: Q04DX003 (ip), vehicle: Klucel (hydroxypropylcellulose) (HPC)

Measured: T/C

CN(C)C(=Nc1ccc(NC(=O)c2ccc(C(=O)Nc3ccc(N=C(Nc4ccccc4)N(C)C)cc3)cc2)cc1)Nc1ccccc1
inactive: dose: 1.5 mg/kg/injection, schedule: Q01DX Z (ip), vehicle: carboxymethylcellulose (CMC) 95 % of control | dose: 3.0 mg/kg/injection, schedule: Q01DX Z (ip), vehicle: carboxymethylcellulose (CMC) 97 % of control | dose: 6.0 mg/kg/injection, schedule: Q01DX Z (ip), vehicle: carboxymethylcellulose (CMC) 107 % of control | dose: 12.0 mg/kg/injection, schedule: Q01DX Z (ip), vehicle: carboxymethylcellulose (CMC) 89 % of control

CCOC(=O)C1(C2=NC(C)(C)CC(C)O2)CCCCC1 (stereo unspecified)
inactive: dose: 100.0 mg/kg/injection, schedule: Q01DX009 (ip), vehicle: other 102 % of control | dose: 200.0 mg/kg/injection, schedule: Q01DX009 (ip), vehicle: other 100 % of control | dose: 400.0 mg/kg/injection, schedule: Q01DX009 (ip), vehicle: other 107 % of control

CNC(=O)N(C)c1cc(N(C)C)nc(OC)n1
inactive: dose: 5.0 mg/kg/injection, schedule: Q01DX009 (ip), vehicle: Klucel (hydroxypropylcellulose) (HPC) 98 % of control | dose: 10.0 mg/kg/injection, schedule: Q01DX009 (ip), vehicle: Klucel (hydroxypropylcellulose) (HPC) 94 % of control | dose: 20.0 mg/kg/injection, schedule: Q01DX009 (ip), vehicle: Klucel (hydroxypropylcellulose) (HPC) 94 % of control

OCC1OCCO1
inactive: dose: 100.0 mg/kg/injection, schedule: Q01DX009 (ip), vehicle: saline with Tween-80 96 % of control | [1] 110 % of control | dose: 200.0 mg/kg/injection, schedule: Q01DX009 (ip), vehicle: saline with Tween-80 93 % of control | dose: 200.0 mg/kg/injection, schedule: Q04DX003 (ip), vehicle: saline with Tween-80 102 % of control | dose: 400.0 mg/kg/injection, schedule: Q01DX009 (ip), vehicle: saline with Tween-80 96 % of control | dose: 400.0 mg/kg/injection, schedule: Q04DX003 (ip), vehicle: saline with Tween-80 100 % of control

Cn1ncc(C#N)c1N
inactive: dose: 50.0 mg/kg/injection, schedule: Q01DX001 (ip), vehicle: saline 98 % of control | dose: 100.0 mg/kg/injection, schedule: Q01DX001 (ip), vehicle: saline 110 % of control | dose: 100.0 mg/kg/injection, schedule: Q04DX002 (ip), vehicle: Klucel (hydroxypropylcellulose) (HPC) 98 % of control | dose: 200.0 mg/kg/injection, schedule: Q01DX001 (ip), vehicle: saline 95 % of control | dose: 200.0 mg/kg/injection, schedule: Q04DX002 (ip), vehicle: Klucel (hydroxypropylcellulose) (HPC) 91 % of control | dose: 400.0 mg/kg/injection, schedule: Q01DX001 (ip), vehicle: saline 95 % of control | dose: 400.0 mg/kg/injection, schedule: Q04DX002 (ip), vehicle: Klucel (hydroxypropylcellulose) (HPC) 100 % of control

Nc1cccc2c1[nH]c(=O)c1ccccc12
inactive: dose: 100.0 mg/kg/injection, schedule: Q01DX001 (ip), vehicle: carboxymethylcellulose (CMC) 95 % of control | dose: 200.0 mg/kg/injection, schedule: Q01DX001 (ip), vehicle: carboxymethylcellulose (CMC) 97 % of control | dose: 400.0 mg/kg/injection, schedule: Q01DX001 (ip), vehicle: carboxymethylcellulose (CMC) 97 % of control

O=C(Nc1ccccc1C(F)(F)F)OCCOc1ccccc1Cl
inactive: [2] 92 % of control | [3] 92 % of control | [4] 92 % of control

CCCCC/C(C)=N\Nc1ccccn1
inactive: dose: 12.5 mg/kg/injection, schedule: Q01DX009 (ip), vehicle: Klucel (hydroxypropylcellulose) (HPC) 98 % of control | dose: 25.0 mg/kg/injection, schedule: Q01DX009 (ip), vehicle: Klucel (hydroxypropylcellulose) (HPC) 100 % of control | dose: 25.0 mg/kg/injection, schedule: Q01DX009 (ip), vehicle: acetone 97 % of control | dose: 50.0 mg/kg/injection, schedule: Q01DX001 (ip), vehicle: acetone 100 % of control | dose: 50.0 mg/kg/injection, schedule: Q01DX009 (ip), vehicle: Klucel (hydroxypropylcellulose) (HPC) 104 % of control | dose: 50.0 mg/kg/injection, schedule: Q01DX009 (ip), vehicle: acetone 100 % of control | dose: 50.0 mg/kg/injection, schedule: Q04DX003 (ip), vehicle: Klucel (hydroxypropylcellulose) (HPC) 95 % of control | dose: 50.0 mg/kg/injection, schedule: Q04DX003 (ip), vehicle: saline with Tween-80 100 % of control | dose: 100.0 mg/kg/injection, schedule: Q01DX001 (ip), vehicle: acetone 102 % of control | dose: 100.0 mg/kg/injection, schedule: Q01DX009 (ip), vehicle: acetone 88 % of control | [2] 101 % of control | [1] 100 % of control | dose: 200.0 mg/kg/injection, schedule: Q01DX001 (ip), vehicle: acetone 94 % of control | [3] 106 % of control

[N-]=[N+]=Nc1ccc(-c2nc(N)[nH]c(=O)c2Br)cc1
inactive: [2] 93 % of control | [3] 86 % of control | [4] 100 % of control
